Patent US9938262B2, “Benzamides” (Merck Patent GmbH, priority 2011, dated 2018)

Biological target: T1, FSHR (Homo sapiens, UniProt P23945)
T1 construct: expressed in transfected cells; host or cells: CHO (Cho-FSHR-LUC-1-1-43)
Test: EC50 of cyclic AMP production in CHO FSHR cells + EC20 FSH (Assay A)
Type: cell-based
Conditions: CHO FSHR cells + EC20 FSH; Table 2; read-out: Assay A EC50 of cyclic AMP production
Outline: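 cAMP HTRF ratio (665/620 nm) read after 1 h, 37 °C exposure of CHO-FSHR cells to compound in presence of EC20 FSH ([…]) and IBMX 200 μM. Responses given relative to FSH standard maximum; EC50 derived.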

T1 sequence (P23945 18-695): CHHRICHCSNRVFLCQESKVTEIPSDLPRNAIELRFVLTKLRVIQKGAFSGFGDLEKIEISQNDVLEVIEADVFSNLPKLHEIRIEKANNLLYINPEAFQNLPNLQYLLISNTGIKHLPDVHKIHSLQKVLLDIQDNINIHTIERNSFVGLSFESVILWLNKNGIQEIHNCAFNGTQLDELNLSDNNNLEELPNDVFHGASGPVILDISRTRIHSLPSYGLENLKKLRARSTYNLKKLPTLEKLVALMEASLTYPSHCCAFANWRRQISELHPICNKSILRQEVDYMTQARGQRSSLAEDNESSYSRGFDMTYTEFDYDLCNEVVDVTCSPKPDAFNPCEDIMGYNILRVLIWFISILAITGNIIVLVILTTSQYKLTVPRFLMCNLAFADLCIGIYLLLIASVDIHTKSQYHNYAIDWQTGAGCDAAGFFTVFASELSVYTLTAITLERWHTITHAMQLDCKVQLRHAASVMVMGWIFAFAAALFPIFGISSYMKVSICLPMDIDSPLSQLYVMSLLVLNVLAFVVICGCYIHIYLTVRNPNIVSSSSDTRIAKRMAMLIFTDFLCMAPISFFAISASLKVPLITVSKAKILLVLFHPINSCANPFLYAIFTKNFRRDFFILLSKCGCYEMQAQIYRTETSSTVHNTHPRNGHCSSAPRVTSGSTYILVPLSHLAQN
T1 sequence (P01215 25-116 partner): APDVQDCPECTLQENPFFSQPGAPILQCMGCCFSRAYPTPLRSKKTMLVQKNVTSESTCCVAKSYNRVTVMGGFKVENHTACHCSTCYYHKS
T1 sequence (P01225 19-129 partner): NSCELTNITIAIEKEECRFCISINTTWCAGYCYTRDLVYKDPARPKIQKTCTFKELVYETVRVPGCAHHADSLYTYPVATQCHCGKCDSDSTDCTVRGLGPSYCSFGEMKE

Cc1ccccc1N1CCN(c2ccc(C(=O)NCCCN3CCOC3=O)cc2NC(=O)c2coc(C3CC3)n2)CC1 [Compound 321]
EC50: 0.1 to 1 µM

CNCc1cccc(CNC(=O)c2ccc(N3CCN(c4ccccc4C)CC3)c(NC(=O)c3ccco3)c2)c1 [Compound 323]
EC50: 0.1 to 1 µM

CCn1nc(C2CC2)cc1C(=O)Nc1cc(C(=O)NCCCN2CCCC2=O)ccc1N1CCN(c2ccccc2C)CC1 [Compound 324]
EC50: 1 to 10 µM

Cc1ccccc1N1CCN(c2ccc(C(=O)NC3(c4cccc(C(N)=O)c4)CC3)cc2NC(=O)c2ccco2)CC1 [Compound 325]
EC50: 0.1 to 1 µM

Cc1ccccc1N1CCN(c2ccc(C(=O)NCc3cccc(CN(C)C(=O)OC(C)(C)C)c3)cc2NC(=O)c2ccco2)CC1 [Compound 326]
EC50: > 10 µM

Cc1ccccc1N1CCN(c2ccc(C(=O)NCc3cccc(CN)c3)cc2NC(=O)c2ccco2)CC1 [Compound 327]
EC50: 0.1 to 1 µM

Cc1ccccc1N1CCN(c2ccc(C(=O)NCCCN3C(=O)CCC3C)cc2NC(=O)c2coc(C3CC3)n2)CC1 (stereo not drawn) [Compound 330]
EC50: 0.1 to 1 µM

Cc1ccccc1N1CCN(c2ccc(C(=O)NCCCN3CCN(C)C3=O)cc2NC(=O)c2coc(C3CC3)n2)CC1 [Compound 331]
EC50: < 0.1 µM

Cc1ccccc1N1CCN(c2ccc(C(=O)NCCCN3C(=O)OCC3C)cc2NC(=O)c2coc(C3CC3)n2)CC1 (stereo not drawn) [Compound 332]
EC50: 0.1 to 1 µM

Cc1ccccc1N1CCN(c2ccc(C(=O)NCCC(C)N3CCCC3=O)cc2NC(=O)c2coc(C3CC3)n2)CC1 (stereo not drawn) [Compound 333]
EC50: 0.1 to 1 µM

Cc1ccc(C(=O)Nc2cc(C(=O)NCCCc3cn[nH]c3)ccc2N2CCN(c3ccccc3C)CC2)o1 [Compound 334]
EC50: 0.1 to 1 µM

Cc1ccccc1N1CCN(c2ccc(C(=O)N[C@@H](CO)c3ccccc3)cc2NC(=O)c2coc(C3CC3)n2)CC1 [Compound 343]
EC50: 1 to 10 µM

Cc1ccccc1N1CCN(c2ccc(C(=O)NC3CCN(C4CCCC4)C3)cc2NC(=O)c2ccco2)CC1 (stereo not drawn) [Compound 345]
EC50: 1 to 10 µM

Cc1ccccc1N1CCN(c2ccc(C(=O)NC(C)c3ccccc3)cc2NC(=O)c2coc(C3CC3)n2)CC1 (stereo not drawn) [Compound 346]
EC50: 0.1 to 1 µM

Cc1ccccc1N1CCN(c2ccc(C(=O)NCCN3C(=O)CCC3=O)cc2NC(=O)c2coc(C3CC3)n2)CC1 [Compound 347]
EC50: > 10 µM

Cc1ccccc1N1CCN(c2ccc(C(=O)NCc3cccc(CN(C)C)c3)cc2NC(=O)c2coc(C3CC3)n2)CC1 [Compound 348]
EC50: 0.1 to 1 µM

Cc1ccccc1N1CCN(c2ccc(C(=O)NCCN3CCOC3=O)cc2NC(=O)c2coc(C3CC3)n2)CC1 [Compound 350]
EC50: 0.1 to 1 µM

Cc1ccccc1N1CCN(c2ccc(C(=O)NCCCC(=O)O)cc2NC(=O)c2coc(C3CC3)n2)CC1 [Compound 351]
EC50: 0.1 to 1 µM

Cc1ccccc1N1CCN(c2ccc(C(=O)NCCCN3C(=O)[C@@H]4C=C[C@H]3C4)cc2NC(=O)c2coc(C3CC3)n2)CC1 [Compound 352]
EC50: 0.1 to 1 µM

Cc1ccccc1N1CCN(c2ccc(C(=O)NCCCN3C(=O)[C@@H]4CC[C@H]3C4)cc2NC(=O)c2coc(C3CC3)n2)CC1 [Compound 353]
EC50: 0.1 to 1 µM

Cc1ccccc1N1CCN(c2ccc(C(=O)NCCCN3C(=O)CCC3(C)C)cc2NC(=O)c2coc(C3CC3)n2)CC1 [Compound 354]
EC50: 0.1 to 1 µM

CC(=O)NCC(C)(C)CNC(=O)c1ccc(N2CCN(c3ccccc3C)CC2)c(NC(=O)c2coc(C3CC3)n2)c1 [Compound 355]
EC50: 0.1 to 1 µM

Cc1ccccc1N1CCN(c2ccc(C(=O)NCC(C)(C)CN3CCCC3=O)cc2NC(=O)c2coc(C3CC3)n2)CC1 [Compound 356]
EC50: 0.1 to 1 µM

Cc1ccccc1N1CCN(c2ccc(C(=O)NCCCN3C(=O)OC[C@H]3CO)cc2NC(=O)c2coc(C3CC3)n2)CC1 [Compound 357]
EC50: 0.1 to 1 µM

Cc1ccccc1N1CCN(c2ccc(C(=O)NCCCN3C(=O)OCC3(C)C)cc2NC(=O)c2coc(C3CC3)n2)CC1 [Compound 358]
EC50: 0.1 to 1 µM

Cc1ccccc1N1CCN(c2ccc(C(=O)NCC3(C(N)=O)CC3)cc2NC(=O)c2coc(C3CC3)n2)CC1 [Compound 359]
EC50: 0.1 to 1 µM

CC(=O)N(C)CCCNC(=O)c1ccc(N2CCN(c3ccccc3C)CC2)c(NC(=O)c2coc(C3CC3)n2)c1 [Compound 360]
EC50: < 0.1 µM

Cc1ccccc1N1CCN(c2ccc(C(=O)NCCCC(=O)CN(c3ccccc3)c3ccccc3)cc2NC(=O)c2coc(C3CC3)n2)CC1 [Compound 361]
EC50: 1 to 10 µM

Cc1ccccc1N1CCN(c2ccc(C(=O)NCCCN3CCC(F)(F)C3)cc2NC(=O)c2coc(C3CC3)n2)CC1 [Compound 362]
EC50: 0.1 to 1 µM

Cc1ccccc1N1CCN(c2ccc(C(=O)NCCCC(=O)NC3CCC3)cc2NC(=O)c2coc(C3CC3)n2)CC1 [Compound 363]
EC50: 0.1 to 1 µM

Cc1ccccc1N1CCN(c2ccc(C(=O)NC(C)CCN3CCCC3=O)cc2NC(=O)c2coc(C3CC3)n2)CC1 (stereo not drawn) [Compound 364]
EC50: 0.1 to 1 µM

Cc1ccccc1N1CCN(c2ccc(C(=O)NCCCN3CC(C)OC3=O)cc2NC(=O)c2coc(C3CC3)n2)CC1 (stereo not drawn) [Compound 366]
EC50: 0.1 to 1 µM

CCNC(=O)N(C)CCCNC(=O)c1ccc(N2CCN(c3ccccc3C)CC2)c(NC(=O)c2coc(C3CC3)n2)c1 [Compound 367]
EC50: 0.1 to 1 µM

CC(=O)NCCCNC(=O)c1ccc(N2CCN(c3ccccc3C)CC2)c(NC(=O)c2coc(C3CC3)n2)c1 [Compound 368]
EC50: 0.1 to 1 µM

Cc1ccc(C(=O)Nc2cc(C(=O)NCCCN3C(=O)OCC3(C)C)ccc2N2CCN(c3ccccc3C)CC2)o1 [Compound 369]
EC50: 1 to 10 µM

Cc1ccc(C(=O)Nc2cc(C(=O)NCCCN3CC(C)OC3=O)ccc2N2CCN(c3ccccc3C)CC2)o1 (stereo not drawn) [Compound 370]
EC50: 1 to 10 µM

Cc1ccccc1N1CCN(c2ccc(C(=O)NCCNC3CS(=O)(=O)CC3O)cc2NC(=O)c2ccco2)CC1 (stereo not drawn) [Compound 371]
EC50: 0.1 to 1 µM

Cc1ccccc1N1CCN(c2ccc(C(=O)NCCCc3ccccc3O)cc2NC(=O)c2ccco2)CC1 [Compound 372]
EC50: 0.1 to 1 µM

Cc1ccccc1N1CCN(c2ccc(C(=O)NCCCc3ccccc3Cl)cc2NC(=O)c2ccco2)CC1 [Compound 373]
EC50: 1 to 10 µM

Cc1ccccc1N1CCN(c2ccc(C(=O)NCCCn3nccc3C3CC3)cc2NC(=O)c2ccco2)CC1 [Compound 374]
EC50: 0.1 to 1 µM

Cc1ccccc1N1CCN(c2ccc(C(=O)NCCCC3CCCC3)cc2NC(=O)c2ccco2)CC1 [Compound 375]
EC50: 0.1 to 1 µM

Cc1ccccc1N1CCN(c2ccc(C(=O)NCC(=O)NC3CCS(=O)(=O)C3)cc2NC(=O)c2ccco2)CC1 (stereo not drawn) [Compound 376]
EC50: 0.1 to 1 µM

Cc1ccccc1N1CCN(c2ccc(C(=O)NCCCC3CCS(=O)(=O)C3)cc2NC(=O)c2ccco2)CC1 (stereo not drawn) [Compound 377]
EC50: 0.1 to 1 µM

Cc1ccccc1N1CCN(c2ccc(C(=O)NCCCN3C(=O)C(=O)N(C)C3=O)cc2NC(=O)c2ccco2)CC1 [Compound 379]
EC50: 0.1 to 1 µM

Cc1ccccc1N1CCN(c2ccc(C(=O)NCC3C[C@@H]4CC[C@H]3C4)cc2NC(=O)c2ccco2)CC1 (stereo partly drawn) [Compound 380]
EC50: 0.1 to 1 µM

Cc1ccccc1N1CCN(c2ccc(C(=O)NCc3cccc(-c4nccs4)c3)cc2NC(=O)c2coc(C3CC3)n2)CC1 [Compound 382]
EC50: 0.1 to 1 µM

Cc1ccccc1N1CCN(c2ccc(C(=O)NCCCN3CCCC3=O)cc2NC(=O)c2cnc(C3CC3)s2)CC1 [Compound 383]
EC50: 0.1 to 1 µM

Cc1ccccc1N1CCN(c2ccc(C(=O)NCCCN3C(=O)CCC3=O)cc2NC(=O)c2ccc(Br)o2)CC1 [Compound 384]
EC50: 0.1 to 1 µM

Cc1ccccc1N1CCN(c2ccc(C(=O)NCCCN3CCOC3=O)cc2NC(=O)c2ccc(Br)o2)CC1 [Compound 385]
EC50: 0.1 to 1 µM

Cc1ccccc1N1CCN(c2ccc(C(=O)NCCCN3CCCC3=O)cc2NC(=O)c2cnc(C3CC3)o2)CC1 [Compound 386]
EC50: 0.1 to 1 µM

Cc1ccccc1N1CCN(c2ccc(C(=O)NCCNC3CCS(=O)(=O)C3)cc2NC(=O)c2ccco2)CC1 (stereo not drawn) [Compound 387]
EC50: 0.1 to 1 µM

Cc1ccccc1N1CCN(c2ccc(C(=O)NCCCc3ccc(O)cc3)cc2NC(=O)c2ccco2)CC1 [Compound 388]
EC50: < 0.1 µM

Cc1ccccc1N1CCN(c2ccc(C(=O)NCCNC3CCCC3)cc2NC(=O)c2ccco2)CC1 [Compound 389]
EC50: > 10 µM

Cc1ccccc1N1CCN(c2ccc(C(=O)NCCCc3nc(C)c(C)s3)cc2NC(=O)c2coc(C3CC3)n2)CC1 [Compound 390]
EC50: 0.1 to 1 µM

Cc1ccccc1N1CCN(c2ccc(C(=O)NCCCc3scnc3C)cc2NC(=O)c2coc(C3CC3)n2)CC1 [Compound 391]
EC50: 0.1 to 1 µM

Cc1ccccc1N1CCN(c2ccc(C(=O)NCCCc3nccs3)cc2NC(=O)c2coc(C3CC3)n2)CC1 [Compound 393]
EC50: 0.1 to 1 µM

Cc1csc(CCCNC(=O)c2ccc(N3CCN(c4ccccc4C)CC3)c(NC(=O)c3coc(C4CC4)n3)c2)n1 [Compound 395]
EC50: 0.1 to 1 µM

Cc1ccccc1N1CCN(c2ccc(C(=O)NCCCn3cncn3)cc2NC(=O)c2coc(C3CC3)n2)CC1 [Compound 396]
EC50: 0.1 to 1 µM

Cc1ccccc1N1CCN(c2ccc(C(=O)NCCc3ccccc3C#N)cc2NC(=O)c2coc(C3CC3)n2)CC1 [Compound 397]
EC50: 0.1 to 1 µM

Cc1ccc(C(=O)Nc2cc(C(=O)NC(C)CCN3CCCC3=O)ccc2N2CCN(c3ccccc3C)CC2)o1 (stereo not drawn) [Compound 398]
EC50: 0.1 to 1 µM

O=C(NCCCN1CCCC1=O)c1ccc(N2CC=C(c3ccccc3)CC2)c(NC(=O)c2coc(C3CC3)n2)c1 [Compound 399]
EC50: 0.1 to 1 µM

CC(=O)NC1(c2ccccc2)CCN(c2ccc(C(=O)NCCCN3CCCC3=O)cc2NC(=O)c2coc(C3CC3)n2)CC1 [Compound 400]
EC50: > 10 µM

NC1(c2ccccc2)CCN(c2ccc(C(=O)NCCCN3CCCC3=O)cc2NC(=O)c2coc(C3CC3)n2)CC1 [Compound 401]
EC50: > 10 µM

O=C(NCCCN1CCCC1=O)c1ccc(N2CCN(c3ccccc3F)CC2)c(NC(=O)c2coc(C3CC3)n2)c1 [Compound 402]
EC50: 0.1 to 1 µM

O=C(NCCCN1CCCC1=O)c1ccc(N2CCN(c3ccccc3OC(F)(F)F)CC2)c(NC(=O)c2coc(C3CC3)n2)c1 [Compound 403]
EC50: 1 to 10 µM

Cc1ccc(C(=O)Nc2cc(C(=O)NCCCN3CCCC3=O)ccc2N2CCN(c3ccccc3OC(F)(F)F)CC2)o1 [Compound 404]
EC50: 1 to 10 µM
